Results as given in US5428048A, “Aryl-N-hydroxyureas as inhibitors of 5-lipoxygenase and anto-arteriosclerotic agents” (American Home Products Corporation, priority 1993, dated 1995).

System: LT-dependent bronchoconstriction
Assay: Inhibition of Bronchoconstriction in Guinea Pigs Induced by Exogenously Administered Antigen
Assay type: in vivo, Male guinea pigs
Protocol: 4. Inhibition of Brochoconstriction in Guinea Pigs Induced by Exogenously Administered Antigen
Male guinea pigs (Charles River, Wilmington, Mass.) were sensitized 3-4 weeks prior to antigen challenge by administration of 2 i.m. injections of ovalbumin, 1 into each hind limb (35 mg total). Sensitized animals (500-600 g) were fasted overnight prior to experimentation. Conscious animals were then dosed p.o. with drug or vehicle alone (0.5% Tween 80 in H2 O) at the indicated times prior to antigen challenge, or anesthetized animals were dosed i.v. with drug or vehicle alone (DMSO) 5 min prior to antigen challenge. Animals were anesthetized by urethane (2.8 g/kg i.p.). A carotid artery and jugular vein were cannulated to allow for the monitoring of blood pressure and the administration of drugs, respectively. The trachea was then cannulated and connected to a Harvard Apparatus rodent ventilator (S. Natick, Mass.). Spontaneous respiration was abolished by the administration of succinylcholine (2.5 mg/kg i.v.). The animals were then ventilated with room air at a rate of 65 breaths per min. Airway inflation pressure was measured using a Statham pressure transducer (Gould Instruments, Cleveland, Ohio) connected to the tracheal cannula via a side-arm and recorded on a Grass Instruments recorder (Quincy, Mass.). The tidal volume (approximately 10 cc/kg) was adjusted to give a baseline inflation pressure of 8-10 cm H2 O at end inspiration. Animals were then allowed 20 min to stabilize.
Following the stabilization period, animals were given i.v. injections of pyrilamine (5 mg/kg), propranolol (0.1 mg/kg) and indomethacin (10 mg/kg) at 15, 10 and 5 min, respectively, prior to antigen challenge. This pretreatment results in an LT-dependent bronchoconstriction following antigert challenge, which was accomplished by i.v. administration of ovalbumin (10 mg/kg). Only one bronchoconstriction per animal was induced. End-inspiratory inflation pressure (in cm H2 O over baseline) was measured at 5 min post-antigen challenge. A mean value and standard error for the % inhibition of control bronchoconstriction in each drug-treated group was then calculated.

SMILES | Bronchoconstriction % Inhibition (20 mg/kg i.v.) [%] | Bronchoconstriction % Inhibition (25 mg/kg aerosol) [%] | Bronchoconstriction % Inhibition (25 mg/kg p.o.) [%] | Bronchoconstriction % Inhibition (10 mg/kg i.v.) [%] | Bronchoconstriction % Inhibition (10 mg/kg p.o.) [%]
Cc1oc(-c2ccccc2)nc1CCOc1ccc(CN(O)C(N)=O)cc1 [Example 1] | 66 | 67 | 25 | – | –
Cc1oc(-c2ccccc2)nc1CCOc1ccc(C(C)N(O)C(N)=O)cc1 (stereo not shown) [Example 4] | – | 51 | – | – | –
Cc1oc(-c2ccc(C(F)(F)F)cc2)nc1CCOc1ccc(CN(O)C(N)=O)cc1 [Example 13, 1-Hydroxy-1-[4-[2-[5-methyl-2(4-trifluoromethyl-phenyl)-oxazol-4-yl]-ethoxy]benzyl]-urea] | 23 | – | – | – | –
NC(=O)N(O)Cc1ccc(OCCc2noc(-c3ccccc3)n2)cc1 [Example 21, 1-hydroxy-1-[4-[2-(5-phenyl-[1,2,4]-oxadiazol-3-yl)-ethoxy]-benzyl]-urea] | – | – | – | 58 | 34
